Reference: patent US20220202882A1, “EFFECT OF COMBINATION OF BIFIDOBACTERIUM AND BERBERINE ON PRE-DIABETES AND TYPE 2 DIABETES” (The Fourth Military Medical University, priority 2018, published 2022)
Structures can show the parent of a compound that is named as a salt.

Test system: pre-diabetic and type 2 diabetes mellitus patients
Test: Clinical trial: adverse events (safety evaluation)
Assay type: in vivo, human
Experimental: From June 2015 to October 2018, a double-blind, randomized, and parallel-controlled trial, studying the effects of the combined use of Bifidobacterium and berberine on pre-diabetic and type 2 diabetes mellitus patients, was conducted in 10 research centers in Xi'an, Yan'an and Shangluo of Shaanxi province, etc., including the First Affiliated Hospital of the Fourth Military Medical University.
The trial included an enrollment stage of 2 weeks and a treatment stage of 16 weeks. After passing the first visit 1 (see V1 in Table 1), the subjects entered the enrollment stage, i.e., 2 weeks of lifestyle intervention, followed by a re-screening (see V2 in Table 1). The subjects were subjected to a 16-week course of treatment after passing the screening. See Table 1 for the detailed screening parameters.
After the enrollment stage, the baseline data of the 300 successfully enrolled subjects were collected. Meanwhile, the subjects started to receive lifestyle guidance, and were randomly divided into four groups for 16 weeks of treatments.
1) Bifidobacterium group: the subjects were administered with Bifidobacterium capsules (Livzon Pharmaceutical Group Inc., batch no.: 20141013), 0.35 g/capsule, each capsule containing 50,000,000 viable bacteria (Bifidobacterium adolescentis DM8504), 2 capsules/time, 2 times/day, plus berberine placebo tablets (Northeast Pharma Group Shenyang First Pharma Co., Ltd., Lot no.: 20150101, containing 80.2% microcrystalline cellulose, 9.4% pregelatinized starch, 6.4% sodium carboxymethyl starch, 1% magnesium stearate, and 3% copovidone), 0.1 g/tablet, 5 tablets/time, 2 times/day.
2) Berberine group: the subjects were administered with berberine tablets (Northeast Pharma Group Shenyang First Pharma Co., Ltd., Lot no.: 130917, each tablet weighted 0.165 g and contained 0.1 g active berberine ingredient (berberine hydrochloride), with the same excipients as the placebo tablets), 5 tablets/time, 2 times/day, plus Bifidobacterium placebo capsules (Livzon Pharmaceutical Group Inc., Lot no.: 141001, specifically containing 0.348 g spray-dried lactose, and 0.002 g magnesium stearate), 0.35 g/capsule, 2 capsules/time, 2 times/day.
3) Combination Group: the subjects were administered with Bifidobacterium capsules, 0.35 g/capsule, each capsule containing 50,000,000 viable bacteria (B. adolescentis DM8504), 2 capsules/time, 2 times/day, plus berberine tablets, 0.1 g/tablet, each tablet containing 0.1 g active berberine ingredient (berberine hydrochloride), 5 tablets/time, 2 times/day.
4) Control group: the subjects were administered with Bifidobacteria placebo capsules, 0.35 g/capsule, 2 capsules/time, 2 times/day, plus berberine placebo tablets, 0.1 g/tablet, 5 tablets/time, 2 times/day.
Bifidobacterium capsules were taken after meals and berberine tablets were taken before meals.
After the sample testing was finished, 1) Chi-Squared test and t-test were used to evaluate the intergroup balance of the baseline data including the demographic characteristics and pre-treatment indicators, wherein the baseline data referred to those collected at the second visit, before the formal administration, the data collected at the first visit on the enrollment stage were used instead if the data at the second visit was lacking; 2) two-way disordered CM-CH11, Kruska-Wilcox test, etc. were used for analysis and intergroup comparison of pre- and post-treatment indicators such as fasting plasma glucose (FPG), HbA1c, plasma glucose at 2 hours post OGTT (2-h PPG), blood pressure, blood lipids, body weight and BMI; 3) adverse events and hypoglycemia events were described in terms of the type, frequency and relevance with the drugs, for safety evaluation. Software SAS 9.1.3 was used for statistical analysis with all analysis processes being programmed.
All subjects who followed the intent-to-treat principle, grouped randomly, and received the treatment trial and at least one efficacy evaluation were included in the full Analysis Set (FAS). […]

| Molecule | Adverse event rate (human, in vivo) [%] | Event rate of adverse events correlated with medications (human, in vivo) [%] | Number of adverse events correlated with medications (abdominal discomfort, abnormal bowel movement) (human, in vivo) | Number of adverse events reported (human, in vivo) | Number of subjects with adverse events (human, in vivo) | Number of subjects with adverse events correlated with medications (human, in vivo) | Adverse event rate (throughout the trial) [%] | Event rate of adverse events correlated with medications (throughout the trial) [%] | Number of adverse events correlated with medications (abdominal discomfort, abnormal bowel movement) (throughout the trial) | Number of subjects with adverse events (throughout the trial) | Number of subjects with adverse events correlated with medications (throughout the trial) |
| --- | --- | --- | --- | --- | --- | --- | --- | --- | --- | --- | --- |
| Bifidobacterium | 84 | 21.0 | 30 | 203 | 84 | 21 |  |  |  |  |  |
| COc1ccc2cc3[n+](cc2c1OC)CCc1cc2c(cc1-3)OCO2 [Berberine, berberine hydrochloride] |  |  |  |  |  |  | 81.63 | 18.37 | 19 | 40 | 9 |
